Results: patent US20040116346A1, “Affinity small molecules for the EPO receptor” (priority 2002, published 2004)

Key:
Format in all cases: cell-based
[1] = system: CD34+cells; assay: erythroid colony formation in methylcellulose, CD34+ cells; settings: colonies counted on day 14
Text: CD34+cells were isolated and seeded in the presence of compound. The colonies were counted on day 14.

[2] = system: TF-1 and UT-7 cells; assay: biological testing in cell lines (cell proliferation assay and cell signaling assay)
Text: Compounds identified in the initial screen were further tested for their biological activity in two assays: a cell proliferation assay and a cell signaling assay in TF-1 and UT-7 cells. The hit rate in cell proliferation was 0.16%; hit rate in cell signaling was 0.25%.
At the end of the biological testing in cell lines TF-1 and UT-7, E4, E5, E5 analogs and E6 molecules were some of the compounds identified as showing the best activity.
Compounds identified in the initial screen were further tested for their biological activity in two assays: a cell proliferation assay and a cell signaling assay in TF-1 cells. The hit rate in cell proliferation was 0.16%; hit rate in cell signaling was 0.25%.
At the end of the biological testing in cell line, E4, E5, E5 analog, and E6 molecules were some of the compounds identified as showing the best activity.

[3] = system: TF-1 cells; assay: Cell proliferation; settings: TF-1 cells stimulated for 96 hours
Experimental: TF-1 cells were stimulated for 96 hours with different non-peptide EPO-R modulators, and it was observed that the non-peptide EPO binding molecules stimulated cellular proliferation in dose-responsive manner and to the extent of the natural hormone.

[4] = system: Mouse or human bone marrow cells; assay: Formation of erythroid colonies (CFU-e, BFU-e) from bone marrow in methylcellulose; settings: mouse and human bone marrow
Experimental: Mouse or human bone marrow cells were stimulated in methylcellulose for 7 days (mouse) or 14 days (human) with non-peptide EPO-R modulators. Formation of erythroid colonies was observed. (See FIGS. 6 to 8)
(1) Dilute human bone marrow 1:1 with sterile PBS. (2) Slowly layer bone marrow into 50 ml tubes containing 20 ml of LSM Lymphocyte separation medium (ICN/Cappel—cat #50494). 50 ml bone marrow will yield 2 tubes. (3) Spin tubes at 2000 rpm for 30 minutes with brake off. (4) Slowly take out the middle layer using a 10 ml pipette and transfer into a new 50 ml tube. (5) Add PBS +0.5% BSA +5 mM EDTA to tube for washing. (6) Spin tube for 5 minutes at speed 4 with brake on. (7) Repeat wash step 2 more times. (8) After 3rd wash, resuspend pellet in SF Iscoves' MDM medium. (9) Count by diluting cells in 3% acetic acid. (10) Dilute cells to desired concentration (5×10^5 cells/ml) and seed onto methylcellulose.
(1) Tubes containing 3.0 ml of methylcellulose medium (Stemcell Technology, cat #H4230) supplemented with 50 ng/ml hSCF are prepared. (Alternatively the methylcellulose could be supplemented with 50 ng/ml hSCF, 20 ng/ml of hIL-3 and hIL-6). (2) Compounds or EPO of desired concentrations are added to the tubes. […] Colonies are scored on day twelve.
Bone marrow cells were isolated from mouse femurs. […] The colonies were scored on day seven. […]

## Cc1ccc(Cl)cc1Nc1nc2nc(C)c(NCC3CC3)cn2n1 [Compound E5]
[1]
  cooperation with EPO on erythroid colony formation: cooperation
[2]; cell line (TF-1 cells)
  maximum activity compared to EPO natural hormone: maximum activity comparable to that of the maximum activity of EPO
[2]; cell lines TF-1 and UT-7, in the presence of low levels of EPO
  maximum activity compared to EPO natural hormone: maximum activity comparable to that of the maximum activity of EPO
[3]
  cellular proliferation: proliferative effect
[4]
  CFU-e formation compared with EPO: stimulate CFU-e formation to the same extent as EPO
